Here are results for five compounds from patent EP2142646B1, “METHOD OF INCREASING OF THE PHOTOSYNTHETIC CARBON DIOXIDE ASSIMILATION YIELD” (priority 2007, dated 2008).

For one assay, the target named is T1, RuBisCO (Spinacia oleracea, UniProt P00870+P00875).
T1 construct: from tissue; host or cells: spinach
Briefly: RuBisCO carboxylase assay (formation of acid-stable 14C product from NaH14CO3). The format is biochemical, spinach. From the text: Relative amount of product detected represents the ratio of the amount of [1-14C]-3-phosphoglycerate produced by the reaction in the presence of 20E to the amount of [1-14C]-3-phosphoglycerate produced by the reaction in no presence of 20E.
The influence of ecdysteroids on RuBisCO assay was based on the protocol described by Pierce et al. (Pierce JW, McCurry SD, Mulligan RM, Tolbert NE. Activation and assay of ribulose-1,5-bisphosphate carboxylase/oxygenase. Methods Enzymol. 1982; 89: 47-55.), where the RuBisCO carboxylase activity is assayed by the rate of formation of acid-stable ^14C product, […], formed from NaH^14CO3. First, the enzyme from spinach was activated at 2 mg.mL^-1 in the activating buffer - 100 mM Bicine pH 8.2, non-labelled 10 mM NaHCO3, 20 mM MgCl2, 0.2 mM EDTA and 1 mM dithiodireitol - for ten minutes at 30 °C. The assay itself was carried out in 20 ml scintillation vials in a solution prepared by mixing 250 µL of 200 mM bicine buffer pH 8.2, 0.4 mM EDTA and 1 mM dithiothreitol, 5 µL of 2 M MgCl2, 150 µL of 20E solution or water (in the case of the control), 20 µL of 250 mM NaH^14CO3 solution and 20 µL of 12.5 mM ribulose-1,5-bisphosphate. 250 mM NaH^14CO3 was prepared by mixing NaH^14CO3 solution (specific activity 2 mCi/ml) with 0.3 M NaHCO3 in the ratio of 1:4. The reaction was initiated by the addition of 100 µL of the activated enzyme and the vial was swirled so that the solution components could mix. The reaction was stopped by the addition of 200 µL of 2 M HCl. To remove excess ^14CO2 and acid, the vials were slowly heated at 95 °C in a hood. After the liquid evaporated and the vials were cooled at laboratory temperature, 5 mL of scintillation solution Rotiszint® eco plus was added. The concentration of 20E was chosen so that its final molar concentration to the molar concentration of the enzyme in the vial was 1:1; the stock solution containing 1 mg of 20E per ml was diluted to the desired concentration just before the experiment.
The same experiment as in Example 1 was carried out but different amounts of 20-hydroxyecdysone were used.
The same experiment as in Example 1 was carried out but different brassinosteroids were used.
The same experiment as in Example 1 was carried out but different ecdysteroids were used.
The same experiment as in Example 1 was carried out but mixed ecdysteroid fractions were used.

For another assay, the system named is photosynthesis. Kind of assay: Overall activity of photosynthesis in vivo: oxygen production by leaf target (Clark oxygen electrode). To be noted: for Net photosynthetic rate. PN, Average: average of 6 plants; for Net photosynthetic rate. PN: individual plants (Plant nr. 1-6), listed as 20E. The method, then: Activity of photosynthesis was measured as the production of oxygen by circular target (average 35 mm) cut from the third leaf (counted from the top of the plant) that was placed in the sampling chamber. Assay: oxygen electrode (Clark electrode), sampling chamber LD2 (Hansatech, King's Lynn, Great Britain). Target was incubated in the dark for 5 minutes followed by 9 minutes of illumination; production of oxygen evaluated in the fifth-eighth minute after illumination (in the linear part of the light curve). Illumination was 240 micromol.m^-2.s^-1. Plants were 96 days old when analyzed (96 days after sowing). […]

Assay [1] addresses small subunits of RuBisCO (Spinacia oleracea, UniProt P00870). Kind of assay: Bioaffinity chromatography of steroid-binding proteins. From the text: As an example, ecdysteroids can be stated. […] Their function in plants has been unknown yet. We discovered that these compounds influence the carboxylase activity of the enzyme. The active enzyme consists of 8 large subunits and 8 small subunits considered to have regulatory role. We identified the small subunits as proteins able to bind 20-hydroxyecdysone (20HE) in bioaffinity chromatography.

Where [2] appears, read: molar ratio of steroid to enzyme 10:1, relative to reaction without steroid.

Several values for one entry are separate records, joined by “and”; a condition that tells them apart may be missing. Identical values can stand only once.

T1 sequence (P00870 whole entry, other chains not shown): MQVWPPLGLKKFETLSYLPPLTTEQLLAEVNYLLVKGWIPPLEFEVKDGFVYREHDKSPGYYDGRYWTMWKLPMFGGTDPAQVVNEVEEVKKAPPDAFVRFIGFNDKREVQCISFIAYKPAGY
Sequence of small subunits of RuBisCO (P00870 whole entry): as the sequence (P00870 whole entry, other chains not shown) above

With `CC(C)(O)CC[C@@H](O)[C@](C)(O)[C@H]1CC[C@@]2(O)C3=CC(=O)[C@@H]4C[C@@H](O)[C@@H](O)C[C@]4(C)[C@H]3CC[C@]12C` [20-hydroxyecdysone], the “Relative amount of product detected” value at RuBisCO (molar ratio of steroid to enzyme 1:1, [1-14C]-3-phosphoglycerate relative to reaction without steroid) is reported as 1.05; on RuBisCO (setting [2]), 1.13; on RuBisCO (molar ratio of steroid to enzyme 20:1, relative to reaction without steroid) it was 1.12. Besides, the “Net photosynthetic rate. PN, Average” value is 21.09 µmol O2.m^-2.s^-1 in the assay with photosynthesis (1 hour), 22.77 µmol O2.m^-2.s^-1 with photosynthesis (2 hours), 22.34 µmol O2.m^-2.s^-1 with photosynthesis (4 hours) and 22.72 µmol O2.m^-2.s^-1 in the assay with photosynthesis (6 hours). Besides, the “Net photosynthetic rate. PN” value with photosynthesis (1 hour, plants 96 days old, illumination 240 micromol.m^-2.s^-1) was 17.02 µmol O2.m^-2.s^-1 and 21.56 µmol O2.m^-2.s^-1 and 22.70 µmol O2.m^-2.s^-1 and 18.40 µmol O2.m^-2.s^-1 and 23.42 µmol O2.m^-2.s^-1 (2×); in the assay on photosynthesis (2 hours) it was 18.73 µmol O2.m^-2.s^-1 and 21.56 µmol O2.m^-2.s^-1 and 23.83 µmol O2.m^-2.s^-1 and 23.42 µmol O2.m^-2.s^-1 and 25.10 µmol O2.m^-2.s^-1 and 23.98 µmol O2.m^-2.s^-1; in the assay with photosynthesis (4 hours), 21.56 µmol O2.m^-2.s^-1 and 22.70 µmol O2.m^-2.s^-1 and 22.31 µmol O2.m^-2.s^-1 (2×) and 21.75 µmol O2.m^-2.s^-1 and 23.42 µmol O2.m^-2.s^-1; with photosynthesis (6 hours) it was 23.83 µmol O2.m^-2.s^-1 and 22.70 µmol O2.m^-2.s^-1 and 22.31 µmol O2.m^-2.s^-1 (2×) and 21.75 µmol O2.m^-2.s^-1 and 23.42 µmol O2.m^-2.s^-1. Also, the “binding to small subunits of RuBisCO” value in assay [1] is given as “able to bind”.

In the case of `CC(C)[C@@H](C)[C@@H](O)[C@H](O)[C@@H](C)[C@H]1CC[C@H]2[C@@H]3COC(=O)[C@H]4C[C@H](O)[C@H](O)C[C@]4(C)[C@H]3CC[C@]12C` [24-epibrassinolide], the “Relative amount of product detected” value at RuBisCO (setting [2]) was determined as 1.10.

As for `CC(C)[C@@H](C)[C@@H](O)[C@H](O)[C@@H](C)[C@H]1CC[C@H]2[C@@H]3CC(=O)[C@H]4C[C@H](O)[C@H](O)C[C@]4(C)[C@H]3CC[C@]12C` [24-epicastasterone], the “Relative amount of product detected” value at RuBisCO (setting [2]) is 1.20.

Consider `CC(C)CC[C@@H](O)[C@](C)(O)[C@H]1CC[C@@]2(O)C3=CC(=O)[C@@H]4C[C@@H](O)[C@@H](O)C[C@]4(C)[C@H]3[C@H](O)C[C@]12C` [Ajugasterone C], for which, on RuBisCO (setting [2]), the “Relative amount of product detected” value came to 1.13.

As for `CC(C)(O)CC[C@@H](O)[C@](C)(O)[C@H]1CC[C@@]2(O)C3=CC(=O)[C@]4(O)C[C@@H](O)[C@@H](O)C[C@]4(C)[C@H]3CC[C@]12C` [Polypodine B], the “Relative amount of product detected” value on RuBisCO (setting [2]) stood at 1.11.
